Read-outs that look alike come from different tables or passages of the source.

The values that follow come from paper PMC11317875 (Chemical Science, 2024).

Test [1] has as its target T1, LpqY (Mycolicibacterium thermoresistibile, UniProt G7CES0). Set-up: His-SUMO (N, cleaved yes); made in house; host or cells: E. coli BL21 (DE3). The following applies: LpqY-azide-trehalose binding; cited from earlier work.
Test [2] deals with Wild-type Mycobacterium bovis BCG. Format: cell-based. The following applies: 100 μM probe.
Test [3] deals with Mycobacterium tuberculosis. Nature of the test: F-Tre uptake at a single time point, HPAEC-PAD of cytosolic extracts. Format: cell-based. The following applies: for uptake / accumulation in Mtb cells: 0-200 μM probe, ion chromatography of cytosolic extracts; for Peak area of F-Tre peak: HPAEC trace.
The test system of test [4] is Mycobacterium tuberculosis. Description: Time dependent F-Tre uptake, HPAEC-PAD of cytosolic extracts. The settings on record: for accumulation rate: 100 μM probe, cytosolic extracts; for Mtb cytosolic concentration: 100 µM probe; for saturation of uptake: up to the 8 hour timepoint. Format: cell-based. The protocol:
lyophilised, resuspended in 1 mL 18 MΩ H2O and filtered through a 10-kDa molecular weight cut-off centrifuge filter (Amicon) and the filtrate analysed. HPAEC-PAD was performed on a Dionex ICS5000+ system with a CarboPac PA-20 analytical column (3 mm x 150 mm) and PA-20 guard column (3 mm x 30 mm) kept at 20 °C. Pulsed amperometry with standard quadrupole waveform was used for detection. The system was equipped with an autosampler that was set up to inject 10 μL sample volumes. Multistep gradient […]
Chromeleon 7 software (Dionex) was used for data processing.
Table S11: High performance anion exchange chromatography KOH elution gradient for F-Tre analysis Time (min) KOH conc. (mM) Flow rate (mL/min)
To quantify uptake, the peak area of 2F-Tre, 3F-Tre and 6F-Tre standards at varying concentrations were measured (Chromeleon 7 software). The peak area was plotted against concentration and simple linear regression was plotted. To determine the concentration of F-Tre analogues in cytosolic samples the area of the peaks of interest was measured (Chromeleon 7 software) and the concentration determined from the calibration […]
Time dependent F-Tre uptake
M. tuberculosis was grown to an OD600 of 0.8, then 2F-Tre, 3F-Tre, 4F-Tre or 6F-Tre were added to a final concentration of 100 µM. Controls with the equivalent volume of water or equivalent concentration of trehalose were also prepared. 5 mL aliquots were taken at T=0, 0.5, 1, 1.5, 2, 3, 4, 6, 8 h and the cells were harvested by centrifugation (2,916 x g, 5 min, 22 ° C) and washed (5 mL PBST) three times. The pellets were then resuspended in 1 mL H2O and lysed by mechanical disruption using 0.1 mm zirconia/silica beads (BioSpec Products) on a FastPrep (MP Biomedicals) ribolyser (4 x 45 s cycles with 90 s on ice in between).
Samples were then centrifuged (16,200 x g, 10 min, 22 °C) and the supernatant collected, lyophilised, resuspended in 1 mL 18 MΩ H2O and filtered through a 10-kDa molecular weight cut-off centrifuge filter (Amicon). The filtrate was analysed by HPAEC-PAD and quantified as described above.

Test [5] addresses T1, LpqY. Nature of the test: Microscale thermophoresis (MST) binding to LpqY. The following applies: for fold weaker binding to LpqY: compared with 3F-Tre, 6F-Tre and unmodified trehalose.
Description: Microscale Thermophoresis
Mtr LpqY (2.6 μM) was labelled with the amine reactive RED-NHS dye (3 μM) (second generation,
NanoTemper Technologies). Following incubation in the dark for 30 min with shaking (300 rpm, room
temperature), excess dye was removed using a Zeba desalting spin column (7KMWCO).
analogues were prepared in PBS containing 0.05% Tween 20, and the final concentration of the protein in the
assay was 500 nM. The samples were loaded into the MonoLith NT.115 standard treated capillaries and
incubated for 10 min before analysis using the Monolith NT.115 instrument (NanoTemper Technologies) at
For another test, the system named is M. bovis BCG. Format: cell-based, Mycobacterium bovis BCG. The following applies: for new spots in the lipid extracts (TLC): 100 μM probe.
Test [6] relates to Mycobacterium tuberculosis. Description: Ion chromatography of hydrolysed lipid extracts of F-Tre labelled Mtb. Format: cell-based.
In another test the test system is Mtb. Format: cell-based, Mycobacterium tuberculosis. The following applies: for new spots in the lipid extracts (TLC) / additional band in the TDM region (TLC) / additional lower polarity bands than TMM (TLC): 100 μM probe; for additional band in the TDM region (TLC) / additional lower polarity bands than TMM (TLC): Fig. 8 shows Mtb and M. bovis BCG.

T1 sequence (G7CES0 29-471): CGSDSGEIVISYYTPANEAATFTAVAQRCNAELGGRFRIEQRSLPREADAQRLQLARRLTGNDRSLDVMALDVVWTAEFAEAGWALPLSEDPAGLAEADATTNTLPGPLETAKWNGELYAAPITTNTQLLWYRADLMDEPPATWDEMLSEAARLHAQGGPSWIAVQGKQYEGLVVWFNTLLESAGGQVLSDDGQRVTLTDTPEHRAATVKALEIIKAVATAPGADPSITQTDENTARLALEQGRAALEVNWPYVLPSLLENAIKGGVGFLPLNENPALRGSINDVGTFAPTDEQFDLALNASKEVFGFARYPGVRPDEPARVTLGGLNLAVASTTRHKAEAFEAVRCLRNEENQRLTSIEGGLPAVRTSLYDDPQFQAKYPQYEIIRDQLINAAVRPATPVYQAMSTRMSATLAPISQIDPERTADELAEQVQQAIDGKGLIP

Regarding `[N-]=[N+]=N[C@H]1[C@@H](O[C@H]2O[C@H](CO)[C@@H](O)[C@H](O)[C@H]2O)O[C@H](CO)[C@@H](O)[C@@H]1O` [2Az-Tre, 2-Deoxy-2-azido-trehalose], the Kd on LpqY [1] is 1916 ± 7.7 µM.

As to `OC[C@H]1O[C@H](O[C@H]2O[C@H](CO)[C@@H](O)[C@H](O)[C@H]2F)[C@H](O)[C@@H](O)[C@@H]1O` [2F-Tre, 2-deoxy-2-fluoro-trehalose], in test [2], the “accumulation in cytosolic extracts” value is given as “accumulate”. Moreover, the “uptake / accumulation in Mtb cells” value in test [3] is “significant dose-dependent increase in the accumulation”. The “Peak area of F-Tre peak” value in test [3] (Mtb + 25 µM F-Tre) came out at 0.096 nC*min; in test [3] (Mtb + 50 µM F-Tre), 0.206 nC*min; in test [3] (Mtb + 100 µM F-Tre), 0.362 nC*min; in test [3] (Mtb + 200 µM F-Tre) it was 1.328 nC*min. In test [4], this compound came in with an accumulation rate of 0.80 µM/h. For the same compound, the Mtb cytosolic concentration in test [4] (Time 0 h) is 0 ± 0 µM; in test [4] (Time 0.5 h), 636 ± 33 µM; in test [4] (Time 1 h) it was 838 ± 52 µM; in test [4] (Time 1.5 h) it was 1144 ± 250 µM; in test [4] (Time 2 h) it was 1717 ± 151 µM; in test [4] (Time 4 h) it was 2917 ± 105 µM. Besides, the results for the Mtb cytosolic concentration in test [4] (Time 6 h) and in test [4] (Time 8 h) were 4597 ± 236 µM and 6639 ± 337 µM, respectively. The saturation of uptake result in test [4] is on record as “no saturation of uptake”. Also, the Kd at LpqY [5] was 770 ± 23.2 µM. For the same compound, the “fold weaker binding to LpqY” value on LpqY [5] is around 8 fold. Also, the “new spots in the lipid extracts (TLC)” value in the test with M. bovis BCG and in the test on Mtb was “new spots” in each case. The “detection in hydrolysed lipid extracts” value in test [6] (100 µM probe, HPAEC-PAD) is on record as “detected”. In addition, in test [6] (Mtb + F-Tre (100 µM)), the “Peak area of F-Tre peak in hydrolysed lipid extracts” value worked out at 0.662 nC*min. In the test with Mtb, the “additional band in the TDM region (TLC)” value is reported as “one additional lower polarity TDM band”. Further, the “additional lower polarity bands than TMM (TLC)” value with Mtb is reported as “Two additional lower polarity bands than TMM”.

For the compound `[N-]=[N+]=N[C@@H]1[C@@H](O)[C@@H](O[C@H]2O[C@H](CO)[C@@H](O)[C@H](O)[C@H]2O)O[C@H](CO)[C@H]1O` [3Az-Tre, 3-Deoxy-3-azido-trehalose], the Kd on LpqY [1] was 475 ± 17.2 µM.

As to `OC[C@H]1O[C@H](O[C@H]2O[C@H](CO)[C@@H](O)[C@H](F)[C@H]2O)[C@H](O)[C@@H](O)[C@@H]1O` [3F-Tre, 3-deoxy-3-fluoro-trehalose], the “accumulation in cytosolic extracts” value in test [2] is “accumulate”. The “uptake / accumulation in Mtb cells” value in test [3] is “significant dose-dependent increase in the accumulation”. In addition, the “Peak area of F-Tre peak” value in test [3] (Mtb + 25 µM F-Tre) is 1.869 nC*min; in test [3] (Mtb + 50 µM F-Tre) it was 3.093 nC*min; in test [3] (Mtb + 100 µM F-Tre) it was 6.779 nC*min; in test [3] (Mtb + 200 µM F-Tre) it was 12.530 nC*min. The accumulation rate in test [4] is 0.94 µM/h. Moreover, the Mtb cytosolic concentration in test [4] (Time 0 h) amounted to 0 ± 0 µM; in test [4] (Time 0.5 h), 250 ± 102 µM; in test [4] (Time 1 h) it was 423 ± 256 µM; in test [4] (Time 1.5 h), 1030 ± 335 µM; in test [4] (Time 2 h), 1628 ± 25 µM; in test [4] (Time 4 h) it was 3016 ± 102 µM. The Mtb cytosolic concentration in test [4] (Time 6 h) is 5872 ± 297 µM; in test [4] (Time 8 h), 7892 ± 72 µM. In addition, the “increased accumulation compared to 2F- and 6F-Tre” value in test [4] (at 8 hours) is listed as around 20%. Also, the saturation of uptake entry in test [4] is on record as “no saturation of uptake”. This compound showed a Kd on LpqY [5] of 111 ± 7.1 µM. Moreover, the “new spots in the lipid extracts (TLC)” value in the test on M. bovis BCG and in the test with Mtb was “new spots” in each case. Further, the “additional band in the TDM region (TLC)” value in the test on Mtb is on record as “one additional lower polarity TDM band”. The “additional lower polarity bands than TMM (TLC)” value with Mtb is listed as “Two additional lower polarity bands than TMM”.

As to `[N-]=[N+]=N[C@H]1[C@H](O)[C@@H](O)[C@@H](O[C@H]2O[C@H](CO)[C@@H](O)[C@H](O)[C@H]2O)O[C@@H]1CO` [4Az-Tre, 4-Deoxy-4-azido-trehalose], at LpqY [1], the equilibrium dissociation constant (Kd) was 247 ± 7.1 µM.

For the compound `OC[C@H]1O[C@H](O[C@H]2O[C@H](CO)[C@@H](F)[C@H](O)[C@H]2O)[C@H](O)[C@@H](O)[C@@H]1O` [4F-Tre], in test [2], the “accumulation in cytosolic extracts” value was “not”. Further, the “uptake / accumulation in Mtb cells” value in test [3] was “No uptake”. In addition, the Mtb cytosolic concentration in test [4] (Time 0 h), in test [4] (Time 0.5 h), in test [4] (Time 1 h), in test [4] (Time 1.5 h), in test [4] (Time 2 h) and in test [4] (Time 4 h) was 0 µM throughout. The Mtb cytosolic concentration in test [4] (Time 6 h) and in test [4] (Time 8 h) was 0 µM throughout. At LpqY [5], the affinity, expressed as Kd, was 1480 ± 75.6 µM. Besides, at LpqY [5] (MST), the affinity range result is recorded as “millimolar range”. For the same compound, the “fold weaker binding to LpqY” value on LpqY [5] was around 16 fold. Moreover, the “presence in trehalose glycolipids” value in the test with M. bovis BCG and with Mtb was “not found in any trehalose glycolipid” each time. The “new spots in the lipid extracts (TLC)” value with M. bovis BCG and in the test with Mtb was “No new spots” in each case.

In the case of `[N-]=[N+]=NC[C@H]1O[C@H](O[C@H]2O[C@H](CO)[C@@H](O)[C@H](O)[C@H]2O)[C@H](O)[C@@H](O)[C@@H]1O` [6Az-Tre, 6-Deoxy-6-azido-trehalose], at LpqY [1], the Kd is 443 ± 5.3 µM.

`OC[C@H]1O[C@H](O[C@H]2O[C@H](CF)[C@@H](O)[C@H](O)[C@H]2O)[C@H](O)[C@@H](O)[C@@H]1O` [6F-Tre, 6-deoxy-6-fluoro-trehalose]: the “accumulation in cytosolic extracts” value in test [2] was “accumulate”. Moreover, in test [3], the “uptake / accumulation in Mtb cells” value is on record as “significant dose-dependent increase in the accumulation”. Also, the “Peak area of F-Tre peak” value stood at 0.144 nC*min in test [3] (Mtb + 25 µM F-Tre), 0.506 nC*min in test [3] (Mtb + 50 µM F-Tre), 0.866 nC*min in test [3] (Mtb + 100 µM F-Tre) and 1.604 nC*min in test [3] (Mtb + 200 µM F-Tre). In addition, the accumulation rate in test [4] turned out to be 0.82 µM/h. In addition, the Mtb cytosolic concentration in test [4] (Time 0 h) came to 0 ± 0 µM; in test [4] (Time 0.5 h) it was 342 ± 16 µM; in test [4] (Time 1 h), 797 ± 224 µM; in test [4] (Time 1.5 h), 1392 ± 83 µM; in test [4] (Time 2 h), 1804 ± 111 µM; in test [4] (Time 4 h), 2945 ± 234 µM. Also, the Mtb cytosolic concentration was determined as 4694 ± 237 µM in test [4] (Time 6 h) and 6843 ± 43 µM in test [4] (Time 8 h). In test [4], the saturation of uptake result was “no saturation of uptake”. Further, the Kd on LpqY [5] stood at 90.3 ± 0.9 µM. Also, the “new spots in the lipid extracts (TLC)” value with M. bovis BCG and with Mtb was “new spots” throughout. The “additional band in the TDM region (TLC)” value in the test on Mtb is given as “no additional band in the TDM region”. Besides, the “additional lower polarity bands than TMM (TLC)” value with Mtb was “one”.
